Laboratory results reported in patent US8012971B2, “Therapeutic agent for chronic obstructive pulmonary disease” (Dainippon Sumitomo Pharma Co., Ltd., priority 2005, dated 2011).

Key:
Type in all cases: in vivo
[1] = tested on: Guinea Pig Chronic Obstructive Pulmonary Disease (COPD) Model; assay: Histological investigations of lung in guinea pig COPD model
Procedure: (§1) An evaluation was carried out as follows according to a report of Kosuke MORIZUMI, Junichi FUCHIGAMI et al., 2002, The 75th Annual Meeting of the Japanese Pharmacological Society (2002) Abstract No. P-259, “Study of a chronic obstructive pulmonary disease-Effects of theophylline on respiratory function and lung function of guinea pigs in an exposure of cigarette smoke.”
(§2) Male Hartley strain guinea pigs (purchased from Japan SLC, Inc.) were taken in a cigarette exposure holder (RMH-TUBES, manufactured by Muenster Ltd.) to secure them to an exposure chamber (Flow-past type nose-only inhalation chamber, manufactured by Muenster Ltd.), and allowed to inhale cigarette smoke (Hi-Lite, manufactured by Japan Tobacco Inc.) for 60 minutes per day for 5 days in a week, totally 4 weeks using a smoking exposure equipment (Hamburg II, manufactured by Borgwaldt Technik), while the exposure was carried out for 4 days in the 4th week. • (2) Drug Administrations
(§3) Each 0.5% MC suspension of a test drug was orally administered daily in 5 ml/weight (kg) once a day for 25 days from the first day of the exposure. To a sham-exposure group and a control group was orally administered a 0.5% MC suspension in a similar manner. Any oral administrations were carried out 0.5 to 1 hours before exposures on a cigarette-smoke-exposure day or after measurements when measuring respiratory functions. A drug was not administered on the day for measurement of respiratory functions after finishing the 4th week of the exposure. • (3) Measurements of Airway Resistance
After collection of BALF, trachea and lung were isolated. The ligation site of the left lung was opened, injected neutral formalin buffer into trachea, bronchi and lung at the pressure of 20 cm H2O via cannula fixed on the side of the lung, and the lung tissue was extended to be fixed. According to a conventional method, tissue section samples were produced using posterior lobe of the left lung and hematoxylin-eosin (HE) stain was carried out. Any other lung tissues were stored in neutral formalin buffers. Drug efficacies of the produced tissue samples were evaluated by scoring tissue changes under the microscope. The criteria of scores were shown as follows: −: none, ±: minimal, +: mild, ++: moderate, +++: severe. Each quantification was calculated as 0, 1, 2, 3, 4.

[2] = tested on: Guinea Pig Chronic Obstructive Pulmonary Disease (COPD) Model; assay: Lung functions (FRC, RV) in guinea pig COPD model; details: for Functional residual capacity (FRC) / Residual volume (RV): after 4th week of exposure, mean ± SEM of 8 animals
Procedure: as §1, §2, §3
After measuring airway resistances in the 4th week, animals were cut open their tracheas under urethane-anesthetizing ([…], i.p.), cannulated on the side of lung, fixed by ligation, and measured residual volumes (RV) and functional residual capacities (FRC) by lung functions measuring system (Biosystem for maneuver, manufactured by Buxco Electronics).

[3] = tested on: Guinea Pig Chronic Obstructive Pulmonary Disease (COPD) Model; assay: Inflammatory cells in bronchoalveolar fluid in guinea pig COPD model; details: for Cell number in BALF, Macrophage / Cell number in BALF, Neutrophil / Cell number in BALF, Total: mean ± SEM of 8 animals
Procedure: as §1, §2, §3
After measuring lung functions, animals were exsanguinated to death and opened the thorax, ligated the left bronchial bifurcation, and then injected saline (2.5 mL) into the right lung and aspirated the same via fixed cannula on measuring lung functions repeatedly in twice (totally 5 mL), and the recovery solution was obtained as a bronchoalveolar lavage fluid (BALF). BALF was centrifuged (230×g, 4° C., for 10 minutes) to give cell pellets. The pellets were suspended in saline (0.5 mL), and to a part of the suspension was added Turk solution (manufactured by Wako Pure Chemical Industries, Ltd.) so as to dilute 10 to 20 folds. Leukocyte numbers per 0.1 μL were measured by a blood cell counting chamber and leukocyte numbers per 1 μL were calculated. Cell suspensions were prepared again, smears were prepared using about 2000 to 3000 total cell numbers, May-Grunwald-Giemsa stain was carried out, leukocyte numbers were counted under the microscope, a ratio of each leukocyte number to total leukocyte number was obtained, and each cell number per 1 μL was calculated based on the ratio. Results are shown in each cell number per 1 μL.

[4] = 30 mg/kg/day for 25 days, 8 animals
[5] = groups of 10 mg/kg and 30 mg/kg, result in words

For CNC(=O)NCCn1c(-c2ccc(N3CCOCC3)cc2)csc1=Nc1cccc(F)c1 [SMP-028, N-{2-[2-[(3-fluorophenyl)imino]-4-(4-morpholinophenyl)-thiazol-3(2H)-yl]ethyl}-N′-methylurea], the “Number of animals with grade ++ (moderate): A. Hyperplasia, epithelial cell, bronchus” value [1, 4] was 0, the “Number of animals with grade ++ (moderate): B. Cellular exudation, neutrophil/eosinophil, lumen, bronchiole” value [1, 4] was 0 and the “Number of animals with grade ++ (moderate): C. Thickening, alveolar wall” value [1, 4] was 0. For the same compound, the “Number of animals with grade ++ (moderate): D. Accumulation, foamy/macrophage-like cell, alveolus” value [1, 4] was 0, the “Number of animals with grade ++ (moderate): E. Cellular infiltration, neutrophil, alveolus” value [1, 4] was 0 and the “Number of animals with grade +++ (severe): A. Hyperplasia, epithelial cell, bronchus” value [1, 4] was 0. The “Number of animals with grade +++ (severe): B. Cellular exudation, neutrophil/eosinophil, lumen, bronchiole” value [1, 4] was 0, the “Number of animals with grade +++ (severe): C. Thickening, alveolar wall” value [1, 4] was 0 and the “Number of animals with grade +++ (severe): D. Accumulation, foamy/macrophage-like cell, alveolus” value [1, 4] was 0. For the same compound, the “Number of animals with grade +++ (severe): E. Cellular infiltration, neutrophil, alveolus” value [1, 4] was 0, the “Number of animals with grade ± (minimal): A. Hyperplasia, epithelial cell, bronchus” value [1, 4] was 0 and the “Number of animals with grade ± (minimal): B. Cellular exudation, neutrophil/eosinophil, lumen, bronchiole” value [1, 4] was 0. The “Number of animals with grade ± (minimal): C. Thickening, alveolar wall” value [1, 4] was 2, the “Number of animals with grade ± (minimal): D. Accumulation, foamy/macrophage-like cell, alveolus” value [1, 4] was 3 and the “Number of animals with grade ± (minimal): E. Cellular infiltration, neutrophil, alveolus” value [1, 4] was 0. The “Number of animals with grade − (none): A. Hyperplasia, epithelial cell, bronchus” value [1, 4] was 8, the “Number of animals with grade − (none): B. Cellular exudation, neutrophil/eosinophil, lumen, bronchiole” value [1, 4] was 8 and the “Number of animals with grade − (none): C. Thickening, alveolar wall” value [1, 4] was 5. For the same compound, the “Number of animals with grade − (none): D. Accumulation, foamy/macrophage-like cell, alveolus” value [1, 4] was 3, the “Number of animals with grade − (none): E. Cellular infiltration, neutrophil, alveolus” value [1, 4] was 8 and the “accumulation of foamy cells/macrophage-like cells within the alveoli and thickening of the alveolar wall” value [1, 5] was “tended to be suppressed”. The “scored pathological findings (FIG. 2) relative to control group” value ([1]; scores 0-4 for grades − to +++, result in words) was “tended to be dose-dependently suppressed”, the “Functional residual capacity (FRC)” value ([2]; 10 mg/kg/day oral) was 7.213 ± 0.374 ^NS mL and the “Residual volume (RV)” value ([2]; 10 mg/kg/day oral) was 3.236 ± 0.537 ^NS mL. For the same compound, the “Functional residual capacity (FRC)” value ([2]; 30 mg/kg/day oral) was 7.066 ± 0.353 ^NS mL, the “Residual volume (RV)” value ([2]; 30 mg/kg/day oral) was 2.649 ± 0.649 ^NS mL and the “increases of functional residual capacity (FRC) and residual volume (RV)” value [2, 5] was “tended to be suppressed”. For the same compound, the “Cell number in BALF, Macrophage” value ([3]; 10 mg/kg/day oral) was 2506 ± 313 ^NS cells/μL, the “Cell number in BALF, Neutrophil” value ([3]; 10 mg/kg/day oral) was 1114 ± 193 ^NS cells/μL and the “Cell number in BALF, Total” value ([3]; 10 mg/kg/day oral) was 4044 ± 419 ^NS cells/μL. The “Cell number in BALF, Macrophage” value ([3]; 30 mg/kg/day oral) was 2497 ± 483 ^NS cells/μL, the “Cell number in BALF, Neutrophil” value ([3]; 30 mg/kg/day oral) was 772 ± 277 ^NS cells/μL and the “Cell number in BALF, Total” value ([3]; 30 mg/kg/day oral) was 3897 ± 783 ^NS cells/μL. The “infiltrations of the inflammatory cells in the airway” value [3, 5] was “tended to be suppressed”.
